Legend:
SCC7 cells [1] = assay: Photodynamic killing of cancer cells (PDT effect), MTT assay; format: cell-based; conditions: 24 h treatment, IR laser 671 nm at 1.59 J/cm^2, peptidesome fabricated in DW
Method: Having controlled the nano- and biostructural properties of the peptidesomes in terms of intracellular delivery efficiency and cytotoxicity, we then evaluated their tumoricidal photodynamic effects in tissue culture. Squamous cell carcinoma 7 (SCC7) cells were treated with free Pa or the peptidesome←Pa for 24 h, followed by infrared (IR) laser irradiation (671 nm) at 1.59 J/cm^2. Cytotoxicity as a measure of the photodynamic killing of cancer cells was determined using the MTT assay. […] To probe the reason behind this negative result, the amount of single oxygen (SO) generated was quantified after the incubation of both groups in cell culture medium (with serum). The amount of SO was far higher for free Pa than for peptidesome←Pa, which accounts for the results of the PDT assay (Fig. 4b). It has been shown that the aggregation of porphyrin derivatives reduced SO generation and negatively affected PDT efficacy. […] The aggregation would have been more severe in cell culture medium containing serum. Taken together, the nonspecific aggregation of the peptidesome←Pa is likely responsible for the reduced SO generation and the lack of PDT effect. The morphology of peptidesome before and after NIR irradiation was also monitored by AFM (Fig. S12). […]

[2] = Quantification of singlet oxygen with Singlet Oxygen Sensor Green (SOSG); conditions: RPMI 1640 medium with 10% foetal bovine serum, IR laser irradiation
Method: Fig. 4 Nonspecific aggregation of peptidesomes under physiological conditions. (a) PDT effect in SCC7 cells. (b) Quantification of singlet oxygen with Singlet Oxygen Sensor Green (SOSG). The samples were dissolved in RPMI 1640 medium containing 10% foetal bovine serum, and IR laser irradiation was performed for the indicated times. (c) AFM image of the peptidesome←Pa in RPMI 1640 medium (without the serum). R6:RGD2 = 1:9.

SCC7 cells [3] = assay: In vitro cellular uptake, CLSM and flow cytometry; format: cell-based; conditions: 4 h treatment, flow cytometry of Pa fluorescence
Method: Cellular uptake of materials in SCC7 cells was analyzed based on the intrinsic fluorescence of Pa via CLSM (LSM700, Carl Zeiss, Germany) and flow cytometry (FACS Canto II, BD Biosciences, Bedford, MA, USA). SCC7 cells were seeded in 24-well plates at a density of 5 × 10^4 and incubated overnight. Then, 200 μL of the sample in an appropriate solution was added to 800 μL of complete medium for each well. The cells were treated with the samples for 4 h followed by the removal of the sample solution and the washing step. For cell imaging, nuclei were also stained with Hoechst 33,342.

SCC7 tumor-bearing mice = assay: In vivo antitumor (photodynamic) efficacy; parameters: species or system mouse; conditions: end of therapy (14 days)
Method: The SCC7 tumor-bearing mouse models were prepared similarly to the in vivo imaging experiment, and each sample was prepared in the same way as in the in vivo IVIS imaging experiments. The samples were intravenously injected into the mice when the tumor volume reached approximately 50 mm^3. Three hours postinjection of the samples, NIR laser (671 nm) irradiation was administered to the tumor site with a power of 0.53 W/cm^2 for 15 min, and the same sample injection and NIR irradiation procedures were repeated at the next day. The tumor volume and body weight were recorded every two days. At the end of the therapy, major organs and tumors were dissected for histological analysis. They were fixed, sliced, stained with haematoxylin and eosin (H&E), and observed with a microscope (AxioImager A1, Zeiss, Germany).

[4] = stated without reference; cited from earlier work
Text: As stated in Lipinski's rule of five, most small molecule drugs are lipophilic overall. Pheophorbide a (Pa), a small molecule drug used in this study, is also hydrophobic with a low water solubility of approximately 0.014 g/L. Pa is a porphyrin derivative of plant chlorophyll and has been used as a photosensitizer for photodynamic therapy (PDT). For noncovalent drug loading in R6 peptidesome, R6 and Pa were mixed in DW, and the solution was sonicated vigorously. After this drug loading process, the R6 peptidesomes underwent a morphological transformation into elongated supe ...

cells = assay: Cytotoxicity of peptidesomes; format: cell-based; conditions: single-component peptidesomes (Fig. 3a)

C=Cc1c(C)c2cc3nc(c4c5[nH]c(cc6nc(cc1[nH]2)C(C)=C6CC)c(C)c5C(=O)[C@@H]4C(=O)OC)[C@@H](CCC(=O)O)[C@@H]3C [Pa, Pheophorbide a]
PDT effect (cytotoxicity, MTT) (SCC7 cells [1]): strong dose-dependent PDT effect
amount of singlet oxygen (SO) generated, free Pa versus peptidesome←Pa [2]: far higher
cell internalization efficiency relative to peptidesome←Pa (SCC7 cells [3]): 5 fold
excised tumor weight, times larger than peptidesome←Pa (G&G)-treated group (SCC7 tumor-bearing mice): approximately 3 times
weight of the excised tumor (SCC7 tumor-bearing mice; n = 4): 1222 mg
water solubility [4]: approximately 0.014 g/L

CCCCCCCCCCCC(=O)N[C@H]1CCCCNC(=O)[C@H](Cc2c[nH]c3ccccc23)NC(=O)CCC(=O)NCCOCCOCCNC(=O)[C@H](CCCNC(=N)N)NC(=O)[C@H](CCCNC(=N)N)NC(=O)[C@H](CCCNC(=N)N)NC(=O)[C@H](CCCNC(=N)N)NC(=O)[C@H](CCCNC(=N)N)NC(=O)[C@H](CCCNC(=N)N)NC(=O)CCC(=O)NCCOCCOCCNC(=O)[C@H](Cc2c[nH]c3ccccc23)NC1=O [R6]
Cytotoxicity of peptidesomes (cells): highly toxic

— article PMC9254122, “Structural control of self-assembled peptide nanostructures to develop peptide vesicles for photodynamic therapy of cancer” (Materials Today Bio, 2022)
